Reference: patent US20080044844A1 (priority 2004, published 2008)
Read-outs that look alike come from different tables or passages of the source.

Assays:
otsAB promoter = format: cell-based, E. coli
yciD promoter = format: cell-based, E. coli
[1] = rat, in vivo, po; cited from earlier work
[2] = test system: E. coli luxCDABE promoter fusion library; format: cell-based
GrpE promoter [3] = format: cell-based, E. coli
Fiu promoter [4] = format: cell-based, E. coli
lacZ promoter = format: cell-based, E. coli
MipA promoter [5] = format: cell-based, E. coli
nhoA promoter = format: cell-based, E. coli
LacAYZ promoter = format: cell-based, E. coli
STRE = format: cell-based, Saccharomyces cerevisiae
(AP-1-STRE)*2 = format: cell-based, Saccharomyces cerevisiae
MipA promoter [6] = format: cell-based, E. coli; remark: listed apart in the source
GrpE promoter [7] = format: cell-based, E. coli; remark: listed apart in the source
Fiu promoter [8] = format: cell-based, E. coli; remark: listed apart in the source

Compound | share of library promoters with 0 < RRmax < 2 [2] [%] | share of library promoters with 2 < RRmax < 3 [2] [%] | share of library promoters with 3 < RRmax < 5 [2] [%] | share of library promoters with 5 < RRmax < 10 [2] [%] | Cmax (GrpE promoter [3]) [mg/L] | EC200 (GrpE promoter [3]) [mg/L] | Cmax (Fiu promoter [4]) [mg/L] | EC200 (Fiu promoter [4]) [mg/L] | RRmax (Fiu promoter [4]) | t200 (Fiu promoter [4]) [min] | tmax (first value, time to reach RRmax) (Fiu promoter [4]) | tmax (second value, time to reach ΔLmax) (Fiu promoter [4]) | ΔLmax (Fiu promoter [4]) | Cmax (lacZ promoter) [mg/L] | EC200 (lacZ promoter) [mg/L] | RRmax (lacZ promoter) | t200 (lacZ promoter) [min] | tmax (first value, time to reach RRmax) (lacZ promoter) | tmax (second value, time to reach ΔLmax) (lacZ promoter) | ΔLmax (lacZ promoter) | further results
CNC(=O)ON=C(C)SC [Methomyl] | 90.1 | 7.1 | 2.0 | 0.7 |  |  |  |  |  |  |  |  |  |  |  |  |  |  |  |  | Cmax (otsAB promoter): 2000 mg/L; RRmax (otsAB promoter): 3; Cmax (yciD promoter): 2000 mg/L; RRmax (yciD promoter): 2; LD50 [1]: 17 mg/kg; response of the library promoters to the toxicant (in words) [2]: very poor responses; share of library promoters with 10 < RRmax [2]: 0.1%
Oc1c(Cl)cccc1Cl [2,6-Dichlorophenol] |  |  |  |  | 31 | 1.2 | 125 | 16.0 | 4.4 | 31 | 30/120 min | 30/120 min | 25,553 RLU |  |  |  |  |  |  |  | RRmax (GrpE promoter [3]): 19.5; t200 (GrpE promoter [3]): 29 min; tmax (first value, time to reach RRmax) (GrpE promoter [3]): 90/90 min; tmax (second value, time to reach ΔLmax) (GrpE promoter [3]): 90/90 min; ΔLmax (GrpE promoter [3]): 47,877 RLU
COC(=O)C=C(C)OP(=O)(OC)OC [Phosdrin] |  |  |  |  |  |  |  |  |  |  |  |  |  | 180 | 38.3 | 3.7 | 110 | 120/120 min | 120/120 min | 12,900 RLU | 
COc1cc2c(c(OC)c1OC)-c1ccc(OC)c(=O)cc1[C@@H](NC(C)=O)CC2 [Colchicine] |  |  |  |  |  |  | 45 | 14.3 | 4.0 | 85 | 120/120 min | 120/120 min | 1,924 RLU |  |  |  |  |  |  |  | 
CNC(=S)[S-].[Na+] [Metham Sodium] |  |  |  |  |  |  |  |  |  |  |  |  |  | 180 | 20.0 | 6.5 | 90 | 120/120 min | 120/120 min | 30,468 RLU | Cmax (MipA promoter [5]): 180 mg/L; EC200 (MipA promoter [5]): 18.0 mg/L; RRmax (MipA promoter [5]): 5.9; t200 (MipA promoter [5]): 100 min; tmax (first value, time to reach RRmax) (MipA promoter [5]): 120/120 min; tmax (second value, time to reach ΔLmax) (MipA promoter [5]): 120/120 min; ΔLmax (MipA promoter [5]): 27,745 RLU
C[n+]1ccc(-c2cc[n+](C)cc2)cc1 [Paraquat] | 71.1 | 13.7 | 7.5 | 3.7 |  |  | 250 | 9.8 | 16.9 | 42 | 120/60 min | 120/60 min | 29,591 RLU | 32.5 | 9.0 | 13.0 | 85 | 123/132 min | 123/132 min | 253,421 RLU | EC200 (nhoA promoter): 0.43 mg/L; t200 (nhoA promoter): 21 min; tmax (first value, time to reach RRmax) (nhoA promoter): 96/110 min; tmax (second value, time to reach ΔLmax) (nhoA promoter): 96/110 min; ΔLmax (nhoA promoter): 146,342 RLU; Cmax (LacAYZ promoter): 500 mg/L; RRmax (LacAYZ promoter): 28; LD50 [1]: 150 mg/kg; response of the library promoters to the toxicant (in words) [2]: strongest inducer; share of library promoters with 10 < RRmax [2]: 4%
CCOP(=S)(OCC)Oc1ccc([N+](=O)[O-])cc1 [Ethyl Parathion] | 89.6 | 6.3 | 2.1 | 1.7 |  |  |  |  |  |  |  |  |  | 125 | 13.0 | 4.7 | 120 | 132/132 min | 132/132 min | 47,776 RLU | fold higher response (STRE): 4-5 fold; time within which a response can be seen (STRE): 5 to 10 min; Cmax (MipA promoter [5]): 500 mg/L; EC200 (MipA promoter [5]): 79.0 mg/L; t200 (MipA promoter [5]): 60 min; tmax (first value, time to reach RRmax) (MipA promoter [5]): 87/110 min; tmax (second value, time to reach ΔLmax) (MipA promoter [5]): 87/110 min; ΔLmax (MipA promoter [5]): 196,600 RLU; fold higher response ((AP-1-STRE)*2): 4-5 fold; time within which a response can be seen ((AP-1-STRE)*2): 5 to 10 min; Cmax (LacAYZ promoter): 500 mg/L; RRmax (LacAYZ promoter): 8; Cmax (MipA promoter [6]): 500 mg/L; LD50 [1]: 2 mg/kg
Oc1cc(Cl)c(Cl)cc1Cl [2,4,5-Trichlorophenol] |  |  |  |  | 31 | 1.0 | 31 | 1.2 | 11.7 | 39 | 30/120 min | 30/120 min | 33,697 RLU | 31 | 0.8 | 16.1 | 95 | 120/120 min | 120/120 min | 74,832 RLU | RRmax (GrpE promoter [3]): 22.1; t200 (GrpE promoter [3]): 21 min; tmax (first value, time to reach RRmax) (GrpE promoter [3]): 90/90 min; tmax (second value, time to reach ΔLmax) (GrpE promoter [3]): 90/90 min; ΔLmax (GrpE promoter [3]): 54,432 RLU
Oc1ccccc1Cl [2-Chlorophenol] |  |  |  |  | 250 | 2.8 | 500 | 3.4 | 5.8 | 80 | 90/120 min | 90/120 min | 11,971 RLU |  |  |  |  |  |  |  | RRmax (GrpE promoter [3]): 18.7; t200 (GrpE promoter [3]): 32 min; tmax (first value, time to reach RRmax) (GrpE promoter [3]): 90/90 min; tmax (second value, time to reach ΔLmax) (GrpE promoter [3]): 90/90 min; ΔLmax (GrpE promoter [3]): 33,345 RLU
COP(=O)(OC)OC=C(Cl)Cl [DDVP, Dichlorvos] | 91.7 | 5.7 | 2.0 | 0.4 | 125 | 32.5 |  |  |  |  |  |  |  |  |  |  |  |  |  |  | t200 (GrpE promoter [3]): 41 min; tmax (first value, time to reach RRmax) (GrpE promoter [3]): 132/132 min; tmax (second value, time to reach ΔLmax) (GrpE promoter [3]): 132/132 min; ΔLmax (GrpE promoter [3]): 5,290 RLU; Cmax (GrpE promoter [7]): 125 mg/L; Cmax (Fiu promoter [8]): 500 mg/L; RRmax (Fiu promoter [8]): 5
Botulinum Toxin A | 100 |  |  |  |  |  |  |  |  |  |  |  |  |  |  |  |  |  |  |  | response of the library promoters to the toxicant (in words) [2]: did not produce any response
